The values that follow come from PubChem BioAssay (NCI).

SMILES strings stand for the structures.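 Exposure lasted 48 hours, with cells grown in 96-well plates and compounds tested at five concentrations. TGI: concentration producing complete growth inhibition.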

Test systems include U251 CNS; SF-295 CNS; HOP-92 NSCLC; HCT-15 colon; CAKI-1 renal; RPMI-8226 leukemia; SF-268 CNS; SN12C renal; UACC-62 melanoma; NCI-H23 lung; UACC-257 melanoma; A549 NSCLC; NCI-H226 lung; HCT-116 colon; OVCAR-8 ovarian.
What all share (experiment): NCI-60 cell line screen, 48 h

For `O=C(Sc1c(-c2ccccc2)c(=O)n(-c2ccccc2)c(=S)n1-c1ccccc1)c1ccccc1`, the TGI in the test on U251 CNS is > 100 µM; in the test on SF-295 CNS it was > 100 µM; in the test with HOP-92 NSCLC it was 71.9 µM; in the test on HCT-15 colon it was > 100 µM; in the test with CAKI-1 renal, > 100 µM; in the test on RPMI-8226 leukemia, > 100 µM. The TGI with SF-268 CNS, with SN12C renal, in the test on UACC-62 melanoma, in the test on NCI-H23 lung, in the test with UACC-257 melanoma and in the test on A549 NSCLC was > 100 µM throughout. Also, the TGI with NCI-H226 lung, in the test on HCT-116 colon and with OVCAR-8 ovarian was > 100 µM in each case.
For the compound `C=C(COCO)C(C)=O`, the TGI in the test on U251 CNS was 47.2 µM; in the test with SF-295 CNS, > 100 µM; in the test with HOP-92 NSCLC, 48.9 µM; in the test on HCT-15 colon, 39.6 µM; in the test on CAKI-1 renal it was 5.42 µM; with RPMI-8226 leukemia, 5.64 µM. In addition, the TGI with SF-268 CNS was 38 µM; in the test with SN12C renal, 33 µM; in the test with UACC-62 melanoma it was 32.3 µM; with NCI-H23 lung, 35.4 µM; with UACC-257 melanoma it was 31.1 µM; in the test with A549 NSCLC, > 64.7 µM. Besides, the TGI in the test with NCI-H226 lung was > 100 µM; in the test on HCT-116 colon it was 26.7 µM; in the test with OVCAR-8 ovarian, 24.6 µM.
`CC1=NN(c2ccc(S(=O)(=O)O)cc2)C2(C1)C(Cl)C(=O)N2c1nc2ccccc2s1` (stereo not given): the TGI in the test with U251 CNS, with SF-295 CNS, in the test on HOP-92 NSCLC, in the test with HCT-15 colon, in the test on CAKI-1 renal and in the test with RPMI-8226 leukemia was > 100 µM throughout. Further, the TGI with SF-268 CNS, in the test on SN12C renal, in the test on UACC-62 melanoma, in the test on NCI-H23 lung, in the test with UACC-257 melanoma and in the test on A549 NSCLC was > 100 µM throughout. Besides, the TGI with NCI-H226 lung, in the test with HCT-116 colon and in the test on OVCAR-8 ovarian was > 100 µM throughout.
As to `Cc1c(C(=O)c2ccccc2)[n+](=O)c2cc(Cl)c(Cl)cc2n1[O-]`, the TGI in the test with U251 CNS was found to be 29.9 µM; with SF-295 CNS it was 28.7 µM; in the test with HOP-92 NSCLC, 15.2 µM; with HCT-15 colon, 4.56 µM; with CAKI-1 renal, 14.1 µM; with RPMI-8226 leukemia it was 19.8 µM. The TGI is 29.5 µM with SF-268 CNS; 30.5 µM in the test on SN12C renal; 25.1 µM with UACC-62 melanoma; 11.6 µM with NCI-H23 lung; 16.5 µM with UACC-257 melanoma; 27.5 µM with A549 NSCLC. Further, the TGI was found to be 7.59 µM in the test with NCI-H226 lung, 26.3 µM in the test on HCT-116 colon and 23.2 µM in the test on OVCAR-8 ovarian.
As to `C=C1CC[C@@H]2C13[C@@H]1[C@H](CC(=O)[C@@]23C)C1(C)C` (stereo not given in full), the TGI in the test with U251 CNS, in the test with SF-295 CNS, with HOP-92 NSCLC, with HCT-15 colon, with CAKI-1 renal and in the test with RPMI-8226 leukemia was > 100 µM throughout. Also, the TGI in the test on SF-268 CNS, with SN12C renal, in the test with UACC-62 melanoma, in the test with NCI-H23 lung, with UACC-257 melanoma and in the test with A549 NSCLC was > 100 µM in each case. In addition, the TGI in the test with NCI-H226 lung, with HCT-116 colon and in the test on OVCAR-8 ovarian was > 100 µM in each case.
As to `CC(=O)Nc1cc(Cl)cc(Cl)c1O`, the TGI in the test on U251 CNS, in the test on SF-295 CNS, with HOP-92 NSCLC, in the test on HCT-15 colon, in the test on CAKI-1 renal and in the test on RPMI-8226 leukemia was > 100 µM in each case. For the same compound, the TGI in the test on SF-268 CNS, with SN12C renal, in the test on UACC-62 melanoma, in the test with NCI-H23 lung, in the test with UACC-257 melanoma and in the test with A549 NSCLC was > 100 µM throughout. For the same compound, the TGI with NCI-H226 lung, with HCT-116 colon and in the test on OVCAR-8 ovarian was > 100 µM each time.
As for `[N-]=[N+]=NC1C(O)C(CO)OC1n1ccc(N)nc1=O` (stereo not given), the TGI with U251 CNS, in the test with SF-295 CNS, in the test on HOP-92 NSCLC, in the test with HCT-15 colon, in the test with CAKI-1 renal and with RPMI-8226 leukemia was > 625 µM throughout. For the same compound, the TGI was > 625 µM in the test with SF-268 CNS; 615 µM in the test on SN12C renal; 350 µM with UACC-62 melanoma; > 625 µM in the test on NCI-H23 lung; > 625 µM in the test on UACC-257 melanoma; > 625 µM in the test on A549 NSCLC. Also, the TGI in the test on NCI-H226 lung, in the test on HCT-116 colon and with OVCAR-8 ovarian was > 625 µM each time.
Consider `O=C1Nc2ccc(Br)cc2/C1=N/S(=O)(=O)O`, for which the TGI is > 100 µM in the test with U251 CNS; > 100 µM in the test with SF-295 CNS; > 100 µM in the test on HOP-92 NSCLC; > 100 µM in the test on HCT-15 colon; > 100 µM with CAKI-1 renal; 47.6 µM in the test with RPMI-8226 leukemia. Further, the TGI with SF-268 CNS is > 100 µM; with SN12C renal, 37 µM; in the test on UACC-62 melanoma, 40.3 µM; in the test with NCI-H23 lung it was > 100 µM; with UACC-257 melanoma, 31.4 µM; in the test on A549 NSCLC, 78.9 µM. Moreover, the TGI in the test on NCI-H226 lung, with HCT-116 colon and in the test on OVCAR-8 ovarian was > 100 µM throughout.
Take `C=C1c2nc3ccccc3n2C=C(c2ccccc2)N1c1ccc(Cl)cc1`: the TGI was > 70.3 µM in the test on U251 CNS; 49.2 µM with SF-295 CNS; 61.2 µM in the test on HOP-92 NSCLC; > 90.1 µM with HCT-15 colon; 21.6 µM in the test with CAKI-1 renal; > 85 µM in the test on RPMI-8226 leukemia. The TGI in the test with SF-268 CNS is > 100 µM; in the test on SN12C renal, > 100 µM; in the test on UACC-62 melanoma, > 100 µM; in the test with NCI-H23 lung, 79.7 µM; with UACC-257 melanoma, > 100 µM; in the test on A549 NSCLC, > 100 µM. Further, the TGI was > 87.1 µM in the test on NCI-H226 lung, > 100 µM in the test on HCT-116 colon and > 93.1 µM in the test with OVCAR-8 ovarian.
